Assay results reported in patent publication US6420121B1, “Prevention of cell migration initiation with CMV US28 receptor antagonists” (Oregon Health Sciences University, priority 1998, dated 2002).
Entries after “also recorded” stand apart in the source; their conditions may differ.

Key:
[1] = test system: HCMV infected SMCs; experiment: HCMV-induced SMC migration assay (migration chamber); assay type: cell-based; conditions: for inhibition of HCMV-induced SMC migration: SMCs infected with HCMV, FIG. 7 and FIG. 9
Description: The present invention provides an assay for determining therapeutic activity of US28 receptor antagonists, comprising (a) obtaining and isolating smooth muscle cells into a first chamber of a migration device, wherein the first migration chamber comprises growth media chambers and is defined by a first side of a membrane and chamber walls, and wherein the migration device comprises a second chamber defined by the second side of the membrane and having an enclosed space; (b) infecting the smooth muscle cells with human cytomegalovirus (HCVM) containing a gene encoding the US28 receptor; (c) adding a candidate therapeutic agent to the first chamber; and (d) determining the amount of cellular migration into the second chamber, whereby inhibition of cellular migration of infected smooth muscle cells indicates therapeutic activity. Preferably, the smooth muscle cells are isolated from pulmonary arteries. Preferably, the membrane has a pore size of from about 2 to about 10 microns. Most preferably, the membrane pore size is about 3 microns. Preferably the amount of cellular migration is determined by an assay for counting the number of smooth muscle cells in the second chamber wherein the assay for counting the number of smooth muscle cells is selected from the group consisting of microscopic cell counting per unit area, radiolabeling the smooth muscle cells and counting radioactivity in the second chamber, attaching a fluorescent probe to the smooth muscle cells and measuring fluorescence within the second chamber, and combinations thereof.
SMCs are cultured in the upper chamber and infected with HCMV (preferably at or near MOI11). Only cells that are infected will migrate through a filter (preferably 3 micron) to the lower chamber. The cells in the lower chamber are counted by microscopy or labeled with a radioactive or fluorescent label.
The present invention provides an assay for determining therapeutic activity of US28 receptor antagonists, comprising (a) obtaining and isolating smooth muscle cells into a first chamber of a migration device, wherein the first migration chamber comprises growth media chambers and is defined by a first side of a membrane and chamber walls, and wherein the migration device comprises a second chamber defined by the second side of the membrane and having an enclosed space; (b) infecting the smooth muscle cells with human cytomegalovirus (HCVM) containing a gene encoding the US28 receptor; (c) adding a candidate therapeutic agent to the first chamber; and (d) determining the amount of cellular migration into the second chamber, whereby inhibition of cellular migration of infected smooth muscle cells indicates therapeutic activity. Preferably, the smooth muscle cells are isolated from pulmonary arteries. […]

[2] = test system: US28 transfected smooth muscle cell; experiment: US28 SMC migration with PTK pathway inhibitors (FIG. 15); assay type: cell-based

C[C@@H]1C[C@@H]([C@H](O)CC2CC(=O)NC(=O)C2)C(=O)[C@@H](C)C1 [cyclohexamide]
inhibition of HCMV-induced SMC migration [1]: blocked

CO[C@H]1[C@@H](OC)C[C@H](C)[C@@H](OC)C2=CC(=O)C=C(NC(=O)/C(C)=C/C=C\[C@H](OC)[C@@H](OC(N)=O)/C(C)=C/[C@@H]1C)C2=O [herbimycin A, Herbimycin A]
inhibition of US28 SMC migration [2]: effective in inhibiting US28 transfected smooth muscle cell migration

O=C(O)P(=O)(O)O [foscarnet]
inhibition of HCMV-induced SMC migration [1]: did not inhibit SMC migration; also recorded: did not inhibit migration of infected smooth muscle cells

PDGF
induction of cell migration in SMCs ([1]; SMCs treated with PDGF, compared with HCMV infection, FIG. 7): did not cause cell migration in SMCs to nearly the extent as HCMV infection

Pertussis toxin
inhibition of US28 SMC migration [2]: had no effect

B1: RANTES: C-C chemokine, US28 receptor ligand (protein, UniProt P13501 24-91, looked up)
C-C motif chemokine 5: SPYSSDTTPCCFAYIARPLPRAHIKEYFYTSGKCSNPAVVFVTRKNRQVCANPEKKWVREYINSLEMS
SMC migration on addition of chemokine ([1]; HCMV-GFP-infected SMCs, FIG. 12): increased SMC migration in a dose-dependent manner
